Reference: the supplement of paper PMC10307832

Tests used:
Experiment in all cases: relative viability (nuclei count vs DMSO), 5 days (fraction); higher = more cells survive
TGX 221 + AZD7762 = compound: CC1=CN2C(=O)C=C(N=C2C(=C1)C(C)NC3=CC=CC=C3)N4CCOCC4 [TGX 221] + NC(=O)Nc1cc(-c2cccc(F)c2)sc1C(=O)N[C@H]1CCCNC1 [AZD7762] (partner 0.2 µM)
How it was run: (§1)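 Relative viability is defined as nuclei in treated wells over nuclei in vehicle wells. Duplicate plates were run and medians reported. Lung cancer cell lines in 1536-well plates were dosed by pin tool one day after seeding, with one drug or with a fixed anchor-drug dose plus five library-drug doses (not always all listed) in √10 steps, and nuclei were counted after 5 days.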

TGX 221 + Bortezomib = compound: CC1=CN2C(=O)C=C(N=C2C(=C1)C(C)NC3=CC=CC=C3)N4CCOCC4 [TGX 221] + CC(C)C[C@H](NC(=O)[C@H](Cc1ccccc1)NC(=O)c1cnccn1)B(O)O [Bortezomib] (partner 0.002 µM)
How it was run: as §1

TGX 221 + Pemetrexed = compound: CC1=CN2C(=O)C=C(N=C2C(=C1)C(C)NC3=CC=CC=C3)N4CCOCC4 [TGX 221] + Nc1nc2[nH]cc(CCc3ccc(C(=O)N[C@@H](CCC(=O)O)C(=O)O)cc3)c2c(=O)[nH]1 [Pemetrexed] (partner 0.2 µM)
How it was run: as §1

TGX 221 + Palbociclib = compound: CC1=CN2C(=O)C=C(N=C2C(=C1)C(C)NC3=CC=CC=C3)N4CCOCC4 [TGX 221] + CC(=O)c1c(C)c2cnc(Nc3ccc(N4CCNCC4)cn3)nc2n(C2CCCC2)c1=O [Palbociclib] (partner 0.5 µM)
How it was run: as §1

## NCI-H1792
TGX 221 + AZD7762; first compound 0.08 µM
  relative viability: 0.625
TGX 221 + AZD7762; first compound 0.253 µM
  relative viability: 0.625
TGX 221 + AZD7762; first compound 0.8 µM
  relative viability: 0.602
TGX 221 + AZD7762; first compound 2.53 µM
  relative viability: 0.556
TGX 221 + AZD7762; first compound 8 µM
  relative viability: 0.418
TGX 221 + Bortezomib; first compound 0.08 µM
  relative viability: 0.89
TGX 221 + Bortezomib; first compound 0.253 µM
  relative viability: 0.922
TGX 221 + Bortezomib; first compound 0.8 µM
  relative viability: 0.944
TGX 221 + Bortezomib; first compound 2.53 µM
  relative viability: 0.904
TGX 221 + Bortezomib; first compound 8 µM
  relative viability: 0.838
TGX 221 + Pemetrexed; first compound 0.08 µM
  relative viability: 0.795
TGX 221 + Pemetrexed; first compound 0.253 µM
  relative viability: 0.695
TGX 221 + Pemetrexed; first compound 0.8 µM
  relative viability: 0.557
TGX 221 + Pemetrexed; first compound 2.53 µM
  relative viability: 0.549
TGX 221 + Pemetrexed; first compound 8 µM
  relative viability: 0.802
TGX 221 + Palbociclib; first compound 0.08 µM
  relative viability: 0.593
TGX 221 + Palbociclib; first compound 0.253 µM
  relative viability: 0.625
TGX 221 + Palbociclib; first compound 0.8 µM
  relative viability: 0.654
TGX 221 + Palbociclib; first compound 2.53 µM
  relative viability: 0.57
TGX 221 + Palbociclib; first compound 8 µM
  relative viability: 0.582
